Measurements: PubChem BioAssay (NCI)
Values joined by “and” are separate entries in the source; they are usually repeats but may differ in a detail not shown here. Equal entries are not always repeated.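 Method: 48-hour compound exposure of cells in 96-well plates, five concentrations, linear interpolation of endpoints. GI50: concentration for 50% inhibition of growth. TGI denotes the concentration required for complete inhibition of growth.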

Tests used:
Assay in all cases: NCI anticancer screen, dose series, 48 h
SF-268 CNS = test system: SF-268 CNS
DU-145 prostate = test system: DU-145 prostate
OVCAR-3 ovarian = test system: OVCAR-3 ovarian
U251 CNS = test system: U251 CNS
NCI-H460 lung = test system: NCI-H460 lung
K-562 leukemia = test system: K-562 leukemia
MALME-3M melanoma = test system: MALME-3M melanoma
SK-MEL-2 melanoma = test system: SK-MEL-2 melanoma
PC-3 prostate = test system: PC-3 prostate
HCC-2998 colon = test system: HCC-2998 colon

Structure (SMILES)	TGI (SF-268 CNS)	TGI (DU-145 prostate)	TGI (OVCAR-3 ovarian)	TGI (U251 CNS)	TGI (NCI-H460 lung)	TGI (K-562 leukemia)	TGI (MALME-3M melanoma)	TGI (SK-MEL-2 melanoma)	TGI (PC-3 prostate)	TGI (HCC-2998 colon)	GI50 (SF-268 CNS)	GI50 (HCC-2998 colon)	GI50 (OVCAR-3 ovarian)	GI50 (U251 CNS)	GI50 (MALME-3M melanoma)	GI50 (SK-MEL-2 melanoma)	GI50 (DU-145 prostate)	GI50 (NCI-H460 lung)	GI50 (K-562 leukemia)	GI50 (PC-3 prostate)
COC1CC2CCC(C)[C@](O)(O2)C(=O)C(=O)N2CCCCC2C(=O)OC(C(C)CC2CCC(O)C(OC)C2)CC(=O)C(C)C=C(C)C(OC(=O)CN(C)C)C(OC)C(=O)C(C)CC(C)/C=C/C=C/C=C\1C (stereo not given in full)	14.8 µM	14.5 µM	22 µM	18.2 µM	21.7 µM	13.6 µM	20.4 µM	15.1 µM	21.2 µM	–	–	–	–	–	–	–	–	–	–	–
COC(=O)C1C(=O)O[C@@H](c2ccc(OC)cc2OC)C1C(=O)OC (stereo not given in full)	> 100 µM	–	> 100 µM	> 100 µM	> 100 µM	> 100 µM	> 100 µM	–	–	> 100 µM	–	–	–	–	–	–	–	–	–	–
O=C(CC(=O)C(F)(F)F)c1csc2ccccc12	> 100 µM	–	> 100 µM	> 100 µM	> 100 µM	> 100 µM	67.6 µM	53.7 µM	–	> 100 µM	–	–	–	–	–	–	–	–	–	–
COC(=O)[C@@H](C)C[C@H](Cc1ccccc1)NC(=O)c1csc([C@@H](C[C@H](C(C)C)N(C)C(=O)[C@@H](NC(=O)[C@H]2CCCCN2C)C(C)C)OC(C)=O)n1	> 25 µM	–	–	> 25 µM	> 25 µM	> 25 µM	> 25 µM	–	> 25 µM	> 25 µM	0.000671 µM and 0.0025 µM	0.000356 µM and 0.0025 µM	< 0.0001 µM	0.000396 µM and 0.0025 µM	8.67 µM	0.000256 µM	–	–	–	–
CSC(=S)NNC(=O)c1ccncc1	63.3 µM	–	51.3 µM	41.9 µM	> 100 µM	38.5 µM	35.3 µM	33.9 µM	–	38.1 µM	–	–	–	–	–	–	–	–	–	–
Cc1cc(C)n(-c2c(O)ccc(O)c2-n2nc(C)cc2C)n1	> 100 µM	–	> 100 µM	> 100 µM	> 100 µM	> 100 µM	> 100 µM	> 100 µM	–	> 100 µM	–	–	–	–	–	–	–	–	–	–
C[C@]12CCC(=O)C=C1CC[C@@H]1[C@@H]2CC[C@]2(C)C(=O)/C(=C/c3cccc(OCCN4CCOCC4)c3)C[C@@H]12	76.6 µM	51.5 µM	16 µM	24.9 µM	30.1 µM	15.5 µM	36 µM	34.4 µM	29.2 µM	–	13.6 µM	–	3.91 µM	8.5 µM	14.7 µM	16.1 µM	17.9 µM	7.11 µM	3.51 µM	3.15 µM
CC1OC(O)CC(OC(=O)c2ccccc2)C1OC(=O)c1ccccc1 (stereo not given)	30 µM	–	33.4 µM	> 100 µM	> 100 µM	57.5 µM	30.2 µM	–	–	> 100 µM	–	–	–	–	–	–	–	–	–	–
CCC(=C(c1ccc(OCc2ccccc2)cc1)c1ccc(OCc2ccccc2)cc1)c1ccc(OC)cc1	> 100 µM	–	> 100 µM	> 100 µM	> 100 µM	> 100 µM	> 100 µM	> 100 µM	–	> 100 µM	–	–	–	–	–	–	–	–	–	–
Clc1ccc(CO/N=C(\Cn2ccnc2)c2ccc(Cl)cc2Cl)c(Cl)c1	–	3.66 µM	3.12 µM	2.94 µM	–	–	3.36 µM	3.92 µM	2.72 µM	3.42 µM	–	1.73 µM	1.66 µM	1.51 µM	1.66 µM	2.06 µM	1.96 µM	–	–	1.27 µM
